Assays:
[1] = Heat cycling slurry maturation of Psilocybin Pattern A in 24 solvents (visual solubility)
[2] = Solubility in water; assay type: physicochemical
From the text: (§1) The psilocybin of the invention in the form Polymorph A or A′ has the general properties illustrated in Table 5 below: […]

[3] = ICH stability study of psilocybin batches (appearance, water content, purity, assay); conditions: 2-8° C., 25° C./60% RH and 40° C./75% RH
[4] = Hygroscopicity; assay type: physicochemical; conditions: high humidity / added to water
From the text: as §1

[5] = Heat cycling slurry maturation of amorphous Psilocybin (visual solubility, form fate); assay type: physicochemical; conditions: for Obs. at 20° C. / Obs. at 45° C. / Obs. at 50° C.: 20 vol.; for Obs. at 45° C.: 45° C. for 18 hours; for Obs. at 50° C.: 50° C. for 8 hours; for XRPD Data (form fate): solid isolated after heat cycling slurry maturation
Experimental: In order to generate amorphous material a small sample of Psilocybin (0.5 g) was dissolved in water (0.5 L, 1000 vol.), polish filtered and lyophilised. Psilocybin was recovered as an off white fibrous material (lot MC1368A; 412 mg, 82%, XRPD amorphous).
To assess visually solubility of the amorphous API and to induce form modification, a series of slurry maturations were performed as follows:
Psilocybin (15 mg) was charged to tubes. Solvent was then added at ambient temperature (20° C., 0.3 ml, 20 vol.) and the suspensions agitated. Observations were made. After 1 hour of stirring, samples were heated to 45° C. for 18 hours and observations made. Samples were heated to 50° C. for 8 hours and observations were made. The samples were agitated for 72 hours at 25° C. and subject to a final heat cycle, prior to isolation.

Structure (SMILES): CN(C)CCc1c[nH]c2cccc(OP(=O)(O)O)c12 [Psilocybin, 3-[2-(dimethylazaniumyl) Ethyl]-1H-indol-4-yl Hydrogen Phosphate]
- solubility in the solvents and solvent mixtures tested ([1]; 30 volumes at 50° C.): largely insoluble
- solubility in water ([1]; Water, 50° C.): did solubilise
- solubility [2]: ~15 mg/mL
- chemical stability over the first 12 months of the ICH stability study [3]: chemically stable
- Hygroscopicity [4]: Psilocybin forms Hydrate A at high

Structure (SMILES): CN(C)CCc1c[nH]c2cccc(OP(=O)(O)O)c12 [amorphous Psilocybin]
- Obs. at 20° C. ([5]; 4:1 EtOH/water): Susp.
- Obs. at 45° C. ([5]; 4:1 EtOH/water): Susp.
- Obs. at 50° C. ([5]; 4:1 EtOH/water): Susp.
- Obs. at 20° C. ([5]; 4:1 IPA/water): Susp.
- Obs. at 45° C. ([5]; 4:1 IPA/water): Susp.
- Obs. at 50° C. ([5]; 4:1 IPA/water): Susp.
- Obs. at 20° C. ([5]; 4:1 THF/water): Susp.
- Obs. at 45° C. ([5]; 4:1 THF/water): Susp.
- Obs. at 50° C. ([5]; 4:1 THF/water): Susp.
- Obs. at 20° C. ([5]; Acetonitrile): Susp.
- Obs. at 45° C. ([5]; Acetonitrile): Susp.
- Obs. at 50° C. ([5]; Acetonitrile): Susp.
- XRPD Data (form fate) ([5]; Acetonitrile): Amorphous
- Obs. at 20° C. ([5]; Anisole): Susp.
- Obs. at 45° C. ([5]; Anisole): Susp.
- Obs. at 50° C. ([5]; Anisole): Susp.
- XRPD Data (form fate) ([5]; Anisole): Semi-crystalline
- Obs. at 20° C. ([5]; Benzotrifluoride): Susp.
- Obs. at 45° C. ([5]; Benzotrifluoride): Susp.
- Obs. at 50° C. ([5]; Benzotrifluoride): Susp.
- XRPD Data (form fate) ([5]; Benzotrifluoride): Semi-crystalline
- Obs. at 20° C. ([5]; CPME): Susp.
- Obs. at 45° C. ([5]; CPME): Susp.
- Obs. at 50° C. ([5]; CPME): Susp.
- XRPD Data (form fate) ([5]; CPME): Semi-crystalline
- Obs. at 20° C. ([5]; Chlorobenzene): Susp.
- Obs. at 45° C. ([5]; Chlorobenzene): Susp.
- Obs. at 50° C. ([5]; Chlorobenzene): Susp.
- XRPD Data (form fate) ([5]; Chlorobenzene): Semi-crystalline
- Obs. at 20° C. ([5]; Chlorobutane): Susp.
- Obs. at 45° C. ([5]; Chlorobutane): Susp.
- Obs. at 50° C. ([5]; Chlorobutane): Susp.
- XRPD Data (form fate) ([5]; Chlorobutane): Pattern B
- Obs. at 20° C. ([5]; Chloroform): Susp.
- Obs. at 45° C. ([5]; Chloroform): Susp.
- Obs. at 50° C. ([5]; Chloroform): Susp.
- Obs. at 20° C. ([5]; Cyclohexane): Susp.
- Obs. at 45° C. ([5]; Cyclohexane): Susp.
- Obs. at 50° C. ([5]; Cyclohexane): Susp.
- XRPD Data (form fate) ([5]; Cyclohexane): Semi-crystalline
- Obs. at 20° C. ([5]; EtOAc): Susp.
- Obs. at 45° C. ([5]; EtOAc): Susp.
- Obs. at 50° C. ([5]; EtOAc): Susp.
- XRPD Data (form fate) ([5]; EtOAc): Semi-crystalline
- Obs. at 20° C. ([5]; EtOH): Susp.
- Obs. at 45° C. ([5]; EtOH): Susp.
- Obs. at 50° C. ([5]; EtOH): Susp.
- XRPD Data (form fate) ([5]; EtOH): Pattern D
- Obs. at 20° C. ([5]; Heptane): Susp.
- Obs. at 45° C. ([5]; Heptane): Susp.
- Obs. at 50° C. ([5]; Heptane): Susp.
- XRPD Data (form fate) ([5]; Heptane): Semi-crystalline
- Obs. at 20° C. ([5]; IPA): Susp.
- Obs. at 45° C. ([5]; IPA): Susp.
- Obs. at 50° C. ([5]; IPA): Susp.
- XRPD Data (form fate) ([5]; IPA): Pattern B
- Obs. at 20° C. ([5]; MEK): Susp.
- Obs. at 45° C. ([5]; MEK): Susp.
- Obs. at 50° C. ([5]; MEK): Susp.
- XRPD Data (form fate) ([5]; MEK): Semi-crystalline
- Obs. at 20° C. ([5]; MIBK): Susp.
- Obs. at 45° C. ([5]; MIBK): Susp.
- Obs. at 50° C. ([5]; MIBK): Susp.
- XRPD Data (form fate) ([5]; MIBK): Semi-crystalline
- Obs. at 20° C. ([5]; MeOH): Susp.
- Obs. at 45° C. ([5]; MeOH): Susp.
- Obs. at 50° C. ([5]; MeOH): Susp.
- XRPD Data (form fate) ([5]; MeOH): Semi-crystalline
- Obs. at 20° C. ([5]; Nitromethane): Susp.
- Obs. at 45° C. ([5]; Nitromethane): Susp.
- Obs. at 50° C. ([5]; Nitromethane): Susp.
- XRPD Data (form fate) ([5]; Nitromethane): Pattern B
- Obs. at 20° C. ([5]; TBME): Susp
- Obs. at 45° C. ([5]; TBME): Susp.
- Obs. at 50° C. ([5]; TBME): Susp.
- XRPD Data (form fate) ([5]; TBME): Semi-crystalline
- Obs. at 20° C. ([5]; THF): Susp.
- Obs. at 45° C. ([5]; THF): Susp.
- Obs. at 50° C. ([5]; THF): Susp.
- XRPD Data (form fate) ([5]; THF): Semi-crystalline
- Obs. at 20° C. ([5]; Toluene): Susp.
- Obs. at 45° C. ([5]; Toluene): Susp.
- Obs. at 50° C. ([5]; Toluene): Susp.
- Obs. at 20° C. ([5]; Water): Susp.
- Obs. at 45° C. ([5]; Water): Susp.
- Obs. at 50° C. ([5]; Water): Susp.
- Obs. at 20° C. ([5]; iPrOAc): Susp.
- Obs. at 45° C. ([5]; iPrOAc): Susp.
- Obs. at 50° C. ([5]; iPrOAc): Susp.
- XRPD Data (form fate) ([5]; iPrOAc): Semi-crystalline
